# Assay results from patent US20210206820A1 (Purdue Research Foundation, priority 2018, published 2021).
# Primed or numbered codes have the meaning given here. Where no end group is shown, it is not given here. [ ]: non-standard residue; d: D form. PEG2′ = PEG2 spacer
# Legend:
# [1] = system: fracture callus of fractured femur; assay: Femur fracture model, microCT of the fracture callus (BV/TV, TbTh, BV, TbSp); type: in vivo, Swiss Webster mice; settings: local injections
# [2] = system: pre-osteoblastic cell line MC3T3-E1; assay: Alkaline phosphatase (ALP) activity of pre-osteoblastic cells after 7 days exposure; type: cell-based, mouse; settings: 0.1-5 nM in culture media for 7 days, vs DMSO alone
# [3] = system: fracture callus of fractured femur; assay: Femur fracture model, microCT of the fracture callus (BV/TV, TbTh, BV, TbSp); type: in vivo, Swiss Webster mice
# Excerpt: All in vivo data included herein are from swiss Webster mice. All mice received an osteotomy on their right femur and received subcutaneous drug administration daily for either 2, 3 or 4 weeks, as indicated, for each compound. 1× concentration represents 1 nmol/day, 10× represents 10 nmol/day, 100× represents 100 nmol/day most studies have an n of 5.
# The term “BV/TV” means the bone volume divided by total volume of the 100 thickest micro CT slices of the fracture callus.
# The term “TbTh” means the trabecular thickness of the 100 thickest micro CT slices of the fracture callus.
# The term “[…]” means the overall bone volume of the 100 thickest micro CT slices of the fracture callus.
# The term “TbSp” means the spacing between the trabecula in the 100 thickest micro CT slices of the fracture callus.
# (§1) The targeted conjugates were synthesized using standard Fmoc solid-phase peptide synthesis, as described above. To ensure the conjugates' activity, mouse pre-osteoblast ([…]) cells were treated with the targeted and untargeted compounds for three days at concentrations from 1 pM to 100 nM. After three days of treatment, the cells were harvested, and the RNA was purified from the cells. Expression levels of ALP, RUNx2 (transcription factor for osteoblast differentiation), osterix (OSX), osteopontin (OPN), collagen 1A (Col-1A), OPG, RANKL, sclerostin gene (SOST), and OC were quantified via quantitative reverse transcription polymerase chain reaction (RT-qPCR). Once the biological activity of the conjugates was confirmed, they were tested in vivo in a fracture model. Aseptic surgical techniques were used to place a 23-gage needle as in intramedullary nail in the femur of anesthetized, 12-week-old Swiss Webster mice for internal fixation before fracture. Femur fractures were induced using a drop weight fracture device from RISystem. The mice received buprenorphine for three days post fracture. The mice were dosed subcutaneously each day for three weeks or 17 days. Fracture healing was assessed using microCT (Scanco Medical Ag). Morphometric parameters were quantified in the 100 widest slices of the fracture callus. Trabecular thickness (TbTh), trabecular spacing (TbSp), total volume (TV), and volume of calcified callus (BV) were calculated. Fractured femurs were tested for strength in a four-point bend to failure using an Electro Force TestBench (TA Instruments). Lower supports were 10 mm apart on the anterior face of the femur in contact with the proximal and distal diaphysis. Upper supports were 4 mm apart and spanned the entire fracture callus on the diaphysis. Force was applied from the posterior face of the femur with a displacement rate of 0.3 mm/sec. Peak load, yield load, stiffness, displacement post yield, work to fracture, and deformation data were generated. Statistical analysis was performed using a two-way analysis of variance (ANOVA) and a Tukey post-hoc analysis with significance reported at the 95% confidence level. All animal experiments were performed in accordance with protocols approved by Purdue University's Institutional Animal Care and Use Committee (IACUC).
# [4] = system: healed fractured femur; assay: Postmortem four-point bend of the healed femur (peak/max load, stiffness, work to fracture); type: in vivo, Swiss Webster mice; settings: for Bone strength (Max Load, Work to Fracture): n=5
# Protocol: The term “Peak Load” means a postmortem 4 point bend of the healed femur. Peak load represents the maximum force the healed femur withstood before it refractured.
# as §1, with “The mice were dosed subcutaneously each day for three weeks or 17 days.” left out
# Referring to FIGS. 26a, 26b, and 26c, in vivo fracture healing efficacy of VIP_mp4_(D)E10 conjugate on Swiss Webster fracture-bearing mice (n=5) after 3 weeks was reflected as BV/TV, Max Load, and Work to Fracture respectively. […]
# [5] = molecular target: T1, VPAC-1 (Homo sapiens, UniProt P32241); settings: VIP compared with PACAP; cited from earlier work
# T1 sequence (P32241 31-457): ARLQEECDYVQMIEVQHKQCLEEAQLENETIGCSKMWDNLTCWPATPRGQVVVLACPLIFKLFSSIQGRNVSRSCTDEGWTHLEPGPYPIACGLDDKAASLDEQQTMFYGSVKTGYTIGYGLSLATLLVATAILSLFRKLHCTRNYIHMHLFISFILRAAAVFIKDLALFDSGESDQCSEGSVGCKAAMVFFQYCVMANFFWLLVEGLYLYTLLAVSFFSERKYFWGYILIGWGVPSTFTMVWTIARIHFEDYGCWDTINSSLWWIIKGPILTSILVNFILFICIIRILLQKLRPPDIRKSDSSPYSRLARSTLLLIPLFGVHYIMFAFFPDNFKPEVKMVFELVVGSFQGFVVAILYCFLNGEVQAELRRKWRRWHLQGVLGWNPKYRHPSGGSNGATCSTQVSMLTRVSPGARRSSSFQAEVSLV
# [6] = molecular target: T2, VPAC-2 (Homo sapiens, UniProt P41587); settings: VIP compared with PACAP; cited from earlier work
# T2 sequence (P41587 24-438): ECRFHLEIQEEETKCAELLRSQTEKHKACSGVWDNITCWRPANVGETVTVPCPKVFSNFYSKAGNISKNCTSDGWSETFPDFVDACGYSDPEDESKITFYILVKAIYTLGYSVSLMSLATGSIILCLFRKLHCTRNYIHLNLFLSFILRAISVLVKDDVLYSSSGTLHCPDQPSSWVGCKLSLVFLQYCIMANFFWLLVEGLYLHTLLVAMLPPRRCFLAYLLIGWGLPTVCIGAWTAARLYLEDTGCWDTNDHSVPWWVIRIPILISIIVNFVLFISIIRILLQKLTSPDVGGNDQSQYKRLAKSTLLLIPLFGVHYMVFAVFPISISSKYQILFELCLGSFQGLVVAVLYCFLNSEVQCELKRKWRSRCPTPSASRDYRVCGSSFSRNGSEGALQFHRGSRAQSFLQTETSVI
# [7] = 2 weeks, daily sc, 1 to 100 nmol/day
# [8] = 3 weeks, 0.1, 1, 10 nmol per day sc, n=5
# [9] = 4 weeks, daily sc, various concentrations from 1 to 100 nmol/day
compound,measurement,setting,value
"Cc1ncc(CO)c(C)c1O [DOP, 4-deoxypyridoxine]",Fracture healing,[1],acceleration of fracture healing
"CC(C)Oc1ccc(-c2nc(-c3cccc4c3CC[C@@H]4NCCO)no2)cc1C#N [ozanimod, Ozanimod]",Alkaline phosphatase (ALP) activity,[2],boost
same,Fracture healing,[1],acceleration of fracture healing
"Amylin(1-8)-D10: amino acid 1-8 of native amylin attached to 4 peg2 spacers then ten aspartic acid (KCNTATCA[PEG2′][PEG2′][PEG2′][PEG2′]DDDDDDDDDD; not fully specified (bridges); ends and bridges not checked; UniProt P10997 34-41, looked up, fragment)",Bone density (BV/TV) at the fracture calluses,"[3]; 3 weeks, 1, 10, 100 nmol per day sc, n=5",raises bone density
same,"Bone strength (Max Load, Work to Fracture)","[4]; 3 weeks, 1, 10, 100 nmol per day sc",improves bone strength
"BFP-D10: bone forming peptide conjugated with 10 aspartate acids, SEQ ID NO: 1 DDDDDDDDDDGQGFSYPYKAVFSTQ (BFP D10)",BV/TV,[3]; [7],dose dependent manner
same,TbSp,[3]; [7],dose dependent manner
same,"Peak load of fractured femurs, ranking as compared to PBS","[4]; 100 nmol/day (100×), after 2 weeks",obtained the maximum peak load
CBM D10: collagen binding motif of osteopontin conjugated with 10 aspartate acids,BV/TV,"[3]; 3 weeks, 0.1, 1 and 10 nmol/day",dose dependent manner
"CGRP (D)E10: full natural 37 amino acid CGRP, cyclized 2-7, C-terminal 4 minipeg spacers and ten D glutamic acids",Bone density (BV/TV) at the fracture calluses,[3]; [8],raises bone density
same,Bone volume (BV),[3]; [8],stimulates more bone to be generated
same,"Bone strength (Max Load, Work to Fracture)","[4]; 3 weeks, 0.1, 1, 10 nmol per day sc",raises bone strength
Ghrelin-D10: Ghrelin D10 with Serine (Ser)-3 replaced with diaminopropinoic acid,BV/TV,[3]; [9],dose dependent manner
"MGF D10: Mechano-growth factor conjugated with 10 aspartate acids, SEQ ID NO: 11 DDDDDDDDDDYQPPSTNKNTKSQRRKGSTFEEHK (Mechano-growth factor (MGF) D10, an IGF-I fragment)",BV/TV,[3]; [9],dose dependent manner
"OGP-D10: osteogenic growth peptide conjugated with 10 aspartate acids, SEQ ID NO: 2 DDDDDDDDDDALKRQGRTLYGFGG (OGP D10)",BV/TV,[3]; [7],dose dependent manner
same,TbSp,[3]; [7],dose dependent manner
same,TbTh,[3]; [7],dose dependent manner
P4 D10: P4 (knuckle epitope fragment of hBMP-2) conjugated with 10 aspartate acids (HKIPKASSVPTELSAISTLYLDDDDDDDDDD; P4 D10-a BMP2 fragment),Bone volume (BV),"[3]; 4 weeks, 1 nmol/day",healing was reflected
same,BV/TV,[3]; [9],dose dependent manner
Pituitary Adenylyl Cyclase Activating Peptide [PACAP],Affinity for VPAC-1,[5],equal affinity
same,Affinity for VPAC-2,[6],equal affinity
"Preptin-D10: Preptin conjugated with 10 aspartate acids, SEQ ID NO: 3 (HDVSTSQAVLPDDFPRYDDDDDDDDDD; Preptin D10)",Bone volume (BV),"[3]; 2 weeks, daily sc, 1, 10, 100 nmol/day",dose dependent manner
same,BV/TV,[3]; [7],dose dependent manner
same,TbTh,[3]; [7],dose dependent manner
pBMP9 D10: 23-residue peptide from the knuckle epitope of human BMP-9 targeted with D10 (CGGKVGKACCVPTKLSPISVLYK[miniPEG][miniPEG][miniPEG][miniPEG]DDDDDDDDDD; cysteine pairing not given here),Bone volume (BV),"[3]; 4 weeks, daily sc, 1, 10, 100 nmol/day",dose dependent manner
same,BV/TV,[3]; [9],dose dependent manner
substance P D10: substance P with 4 mini PEG linker and conjugated with 10 aspartate acids (DDDDDDDDDDRPKPQQFFGLM; 4 mini PEG linker; substance P 4 mini PEG D10 with; (10)..(11) 4 mini PEG linker),BV/TV,[3]; [9],dose dependent manner
same,Peak load the healed femur can withstand,"[4]; 10× (10 nmol/day), 4 weeks",30-35 Newtons
